Reference: patent publication US11746100B2 (GLOBAL BLOOD THERAPEUTICS, INC., priority 2020, dated 2023)

target: T1, human ferroportin (Homo sapiens, UniProt Q9NP59); experiment: Biological in-vitro ferroportin internalization assay (luciferase reporter); type: cell-based; conditions: average pEC50; stably-transfected CHO cell line expressing human ferroportin tagged to a luciferase reporter; 6 h incubation with test compound
T1 construct: luciferase reporter (read with the Nano-Glo Luciferase Assay System); expressed in transfected cells; host or cells: CHO cells, stably transfected, expression induced with doxycycline
T1 sequence (Q9NP59 1-571): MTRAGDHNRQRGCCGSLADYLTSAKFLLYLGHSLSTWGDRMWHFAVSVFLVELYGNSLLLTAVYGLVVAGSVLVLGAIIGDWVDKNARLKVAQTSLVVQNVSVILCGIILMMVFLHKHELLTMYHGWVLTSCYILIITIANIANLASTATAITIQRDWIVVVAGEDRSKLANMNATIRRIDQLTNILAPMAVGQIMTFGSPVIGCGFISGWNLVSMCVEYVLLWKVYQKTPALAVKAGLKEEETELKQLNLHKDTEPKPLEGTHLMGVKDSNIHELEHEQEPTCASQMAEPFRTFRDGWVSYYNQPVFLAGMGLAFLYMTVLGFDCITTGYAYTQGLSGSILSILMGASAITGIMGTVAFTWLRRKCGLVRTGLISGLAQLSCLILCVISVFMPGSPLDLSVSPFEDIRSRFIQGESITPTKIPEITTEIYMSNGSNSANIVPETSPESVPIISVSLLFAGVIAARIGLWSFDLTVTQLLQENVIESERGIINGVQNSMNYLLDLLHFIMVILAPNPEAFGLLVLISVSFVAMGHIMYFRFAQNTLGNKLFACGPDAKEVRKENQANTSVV
In short: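 Read-out is Nano-Glo luciferase signal after 6 h compound exposure, with average pEC50 derived. Cells are a stable CHO line carrying luciferase-tagged human ferroportin, pre-loaded 24 h with ferric ammonium citrate and doxycycline-induced for 24 h.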

Row | Structure (SMILES) | pEC50
1 | CN(CC(=O)NC(C)(C)C)c1nc(-c2ccccn2)nc2c1CCC2 [Compound 89, N-tert-butyl-2-{methyl[2-(pyridin-2-yl)-5H,6H,7H-cyclopenta[d]pyrimidin-4-yl]amino}acetamide] | 7.3
2 | CN(CC(=O)N1CCCCC1)c1nc(-c2cc(OCCO)ccn2)nc2c1C(C)(C)CC2 [Compound 362, 2-({2-[4-(2-hydroxyethoxy)pyridin-2-yl]-5,5-dimethyl-5H,6H,7H-cyclopenta[d]pyrimidin-4-yl}(methyl)amino)-1-(piperidin-1-yl)ethan-1-one] | 8
3 | CN(CC(=O)Nc1ccc(F)nc1)c1nc(-c2cn(C)cn2)nc2c1CCC2 [Compound 129, N-(6-fluoropyridin-3-yl)-2-{methyl[2-(1-methyl-1H-imidazol-4-yl)-5H,6H,7H-cyclopenta[d]pyrimidin-4-yl]amino}acetamide] | 7.2
4 | COc1ccc(NC(=O)CN(C)c2nc(-c3cc4cn[nH]c4cn3)nc3c2CCC3)cn1 [Compound 219, N-(6-methoxypyridin-3-yl)-2-[methyl(2-{1H-pyrazolo[3,4-c]pyridin-5-yl}-5H,6H,7H-cyclopenta[d]pyrimidin-4-yl)amino]acetamide] | 7.1
5 | CN(CC(=O)Nc1ccccc1)c1nc(-c2ccccn2)nc2c1CCC2 [Compound 77, 2-{methyl[2-(pyridin-2-yl)-5H,6H,7H-cyclopenta[d]pyrimidin-4-yl]amino}-N-phenylacetamide] | 7
6 | CN(CC(=O)NC(C)(C)C)c1nc(-c2cc(OC[C@@H](O)CO)ccn2)nc2c1CCC2 [Compound 451, N-tert-butyl-2-[(2-{4-[(2S)-2,3-dihydroxypropoxy]pyridin-2-yl}-5H,6H,7H-cyclopenta[d]pyrimidin-4-yl)(methyl)amino]acetamide] | 7.8
7 | CC(C)NC(=O)CN(C)c1nc(-c2cc(OCCN3CCOCC3)ccn2)nc2c1CCC2 [Compound 430, 2-[methyl(2-{4-[2-(morpholin-4-yl)ethoxy]pyridin-2-yl}-5H,6H,7H-cyclopenta[d]pyrimidin-4-yl)amino]-N-(propan-2-yl)acetamide] | 8
8 | CN(CC(=O)Nc1cccc(F)c1)c1nc(-c2cc(O[C@H]3C[C@@H](O)C3)ccn2)nc2c1CCC2 [Compound 345, N-(3-fluorophenyl)-2-[methyl(2-{4-[(1s,3s)-3-hydroxycyclobutoxy]pyridin-2-yl}-5H,6H,7H-cyclopenta[d]pyrimidin-4-yl)amino]acetamide] | 6.7
9 | CC(C)NC(=O)CN(C)c1nc(-c2cc(OCCN3CCCC3)ccn2)nc2c1CCC2 [Compound 429, 2-[methyl(2-{4-[2-(pyrrolidin-1-yl)ethoxy]pyridin-2-yl}-5H,6H,7H-cyclopenta[d]pyrimidin-4-yl)amino]-N-(propan-2-yl)acetamide] | 8
10 | COCC(C)(C)NC(=O)CN(C)c1nc(-c2cc(OC)ccn2)nc2c1CCC2 [Compound 139, N-(1-methoxy-2-methylpropan-2-yl)-2-{[2-(4-methoxypyridin-2-yl)-5H,6H,7H-cyclopenta[d]pyrimidin-4-yl](methyl)amino}acetamide] | 7.5
11 | CN(CC(=O)NC(C)(C)C)c1nc(-c2cc3ccoc3cn2)nc2c1CCC2 [Compound 365, N-tert-butyl-2-[(2-{furo[2,3-c]pyridin-5-yl}-5H,6H,7H-cyclopenta[d]pyrimidin-4-yl)(methyl)amino]acetamide] | 7.4
12 | CN(CC(=O)Nc1ccccc1F)c1nc(-c2ccccn2)nc2c1CCC2 [Compound 22, N-(2-fluorophenyl)-2-{methyl[2-(pyridin-2-yl)-5H,6H,7H-cyclopenta[d]pyrimidin-4-yl]amino}acetamide] | 7
13 | Cc1ncc(NC(=O)CN(C)c2nc(-c3cc(OCCO)ccn3)nc3c2CCC3)cn1 [Compound 291, 2-({2-[4-(2-hydroxyethoxy)pyridin-2-yl]-5H,6H,7H-cyclopenta[d]pyrimidin-4-yl}(methyl)amino)-N-(2-methylpyrimidin-5-yl)acetamide] | 7.3
14 | COc1ccc2c(c1)CCN(c1nc(-c3ccccn3)nc3c1CCC3)CC2 [Compound 2, 7-methoxy-3-[2-(pyridin-2-yl)-5H,6H,7H-cyclopenta[d]pyrimidin-4-yl]-2,3,4,5-tetrahydro-1H-3-benzazepine] | 6.6
15 | CN(CC(=O)NC(C)(C)C)c1nc(-c2cc(OCC(C)(C)O)ccn2)nc2c1C(=O)CC2 [Compound 492, N-tert-butyl-2-({2-[4-(2-hydroxy-2-methylpropoxy)pyridin-2-yl]-5-oxo-5H,6H,7H-cyclopenta[d]pyrimidin-4-yl}(methyl)amino)acetamide] | 6.6
16 | CN(CC(=O)Nc1ccc(F)cc1)c1nc(-c2cc3cn(C)nc3cn2)nc2c1CCC2 [Compound 314, N-(4-fluorophenyl)-2-[methyl(2-{2-methyl-2H-pyrazolo[3,4-c]pyridin-5-yl}-5H,6H,7H-cyclopenta[d]pyrimidin-4-yl)amino]acetamide] | 7.6
17 | CN(CC(=O)NC(C)(C)C)c1nc(-c2cc(OCCN3C[C@H]4C[C@@H]3CO4)ccn2)nc2c1CCC2 [Compound 462, N-tert-butyl-2-{methyl[2-(4-{2-[(1R,4R)-2-oxa-5-azabicyclo[2.2.1]heptan-5-yl]ethoxy}pyridin-2-yl)-5H,6H,7H-cyclopenta[d]pyrimidin-4-yl]amino}acetamide] | 8.4
18 | CN(CC(=O)NC(C)(C)CO)c1nc(-c2cn(CCCO)cn2)nc2c1CCC2 [Compound 275, N-(1-hydroxy-2-methylpropan-2-yl)-2-({2-[1-(3-hydroxypropyl)-1H-imidazol-4-yl]-5H,6H,7H-cyclopenta[d]pyrimidin-4-yl}(methyl)amino)acetamide] | 7
19 | CN(CC(=O)NC(C)(C)C)c1nc(-c2cc3[nH]ncc3cn2)nc2c1CCC2 [Compound 176, N-tert-butyl-2-[methyl(2-{1H-pyrazolo[4,3-c]pyridin-6-yl}-5H,6H,7H-cyclopenta[d]pyrimidin-4-yl)amino]acetamide] | 7.8
20 | CN(CC(=O)NC(C)(C)C)c1nc(-c2cc(OCCOc3cccnn3)ccn2)nc2c1CCC2 [Compound 468, N-tert-butyl-2-[methyl(2-{4-[2-(pyridazin-3-yloxy)ethoxy]pyridin-2-yl}-5H,6H,7H-cyclopenta[d]pyrimidin-4-yl)amino]acetamide] | 8.5
21 | CN(CC(=O)Nc1ccc(F)nc1)c1nc(-c2ccccn2)nc2c1CCC2 [Compound 127, N-(6-fluoropyridin-3-yl)-2-{methyl[2-(pyridin-2-yl)-5H,6H,7H-cyclopenta[d]pyrimidin-4-yl]amino}acetamide] | 7.1
22 | CN(CC(=O)N1CCOCC1)c1nc(-c2cc(OCC(C)(C)O)ccn2)nc2c1CCC2 [Compound 399, 2-({2-[4-(2-hydroxy-2-methylpropoxy)pyridin-2-yl]-5H,6H,7H-cyclopenta[d]pyrimidin-4-yl}(methyl)amino)-1-(morpholin-4-yl)ethan-1-oneide] | 7.5
23 | COc1ccc(NC(=O)CN(C)c2nc(-c3cc4scnc4cn3)nc3c2CCC3)cn1 [Compound 304, N-(6-methoxypyridin-3-yl)-2-[methyl(2-{[1,3]thiazolo[4,5-c]pyridin-6-yl}-5H,6H,7H-cyclopenta[d]pyrimidin-4-yl)amino]acetamide] | 6.8
